Some test systems named below: DU-145; KM12; NCI/ADR-RES; OVCAR-8; EKVX; HOP-92; SK-MEL-5; 786-0; UO-31; SF-268; SK-MEL-28; RXF 393; MDA-MB-435; OVCAR-3; MCF7; SN12C; NCI-H460; SF-295; CCRF-CEM; T47D.
What all share (test): NCI anticancer screen, dose series, 48 h

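Exposure lasted 48 hours, with cells grown in 96-well plates and compounds tested at five concentrations. Abbreviation: GI50, concentration required for 50% inhibition of growth.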 Activity calls are given as the source filed them. No stated cut-off is given here; in the data, active = GI50 up to about 1.1 µM and inactive = higher. A value given as a limit tells only on which side of the number the result lay.

As for `O=C(O)C(Br)C(Br)C(=O)O` (centres undefined), the GI50 in the assay with DU-145, with KM12, in the assay with NCI/ADR-RES, in the assay with OVCAR-8, in the assay with EKVX and with HOP-92 was > 100 µM (inactive) each time. Further, the GI50 in the assay on SK-MEL-5, with 786-0, in the assay with UO-31, in the assay on SF-268, in the assay on SK-MEL-28 and with RXF 393 was > 100 µM (inactive) each time. For the same compound, the GI50 with MDA-MB-435, with OVCAR-3, in the assay on MCF7, in the assay on SN12C, in the assay with NCI-H460 and in the assay with SF-295 was > 100 µM (inactive) in each case.

`CC1(C)OC[C@@H](O)[C@H](Br)CO1`: the GI50 with DU-145, in the assay on KM12, in the assay with CCRF-CEM, with OVCAR-8, in the assay on EKVX and with 786-0 was > 100 µM (inactive) throughout. For the same compound, the GI50 with UO-31 was > 100 µM (inactive); with SF-268, 53.8 µM (inactive); in the assay on T47D, > 100 µM (inactive); with SK-MEL-28, > 100 µM (inactive); in the assay on RXF 393, > 100 µM (inactive); in the assay with MDA-MB-435, > 100 µM (inactive). Moreover, the GI50 with OVCAR-3, in the assay with MCF7, in the assay on SN12C, with NCI-H460 and with SF-295 was > 100 µM (inactive) in each case.

For the compound `O=C1O/C(=C(/Cl)c2cccc3ccccc23)c2ccccc21`, the GI50 was > 100 µM (inactive) with DU-145; 7.62 µM (inactive) with KM12; > 10 µM (inactive) with CCRF-CEM; > 100 µM (inactive) with OVCAR-8; > 100 µM (inactive) in the assay on EKVX; > 100 µM (inactive) with HOP-92. For the same compound, the GI50 in the assay on SK-MEL-5 is > 100 µM (inactive); in the assay with 786-0 it was 82.2 µM (inactive); with UO-31 it was > 100 µM (inactive); in the assay on SF-268 it was 81.1 µM (inactive); in the assay on SK-MEL-28, > 100 µM (inactive); with RXF 393, > 100 µM (inactive). For the same compound, the GI50 was > 100 µM (inactive) in the assay on MDA-MB-435; > 100 µM (inactive) in the assay with OVCAR-3; 0.735 µM (active) in the assay with MCF7; > 100 µM (inactive) in the assay with SN12C; > 100 µM (inactive) with NCI-H460; 47 µM (inactive) with SF-295.

Consider `C/N=C(\Nc1cccc(C(F)(F)F)c1)SCc1ccc(N=C=S)cc1`, for which the GI50 in the assay on DU-145 is 17.4 µM (inactive); with KM12, 15.4 µM (inactive); in the assay with CCRF-CEM, 23.4 µM (inactive); in the assay with NCI/ADR-RES it was 22.1 µM (inactive); with OVCAR-8, 19.6 µM (inactive); with EKVX, 20.2 µM (inactive). Besides, the GI50 was 14.7 µM (inactive) in the assay on HOP-92; 16.3 µM (inactive) in the assay on SK-MEL-5; 16.4 µM (inactive) in the assay with 786-0; 15.1 µM (inactive) in the assay with UO-31; 31.2 µM (inactive) in the assay with SF-268; 13.8 µM (inactive) with T47D. Further, the GI50 in the assay with SK-MEL-28 was 21 µM (inactive); in the assay on RXF 393, 13.4 µM (inactive); in the assay on MDA-MB-435, 13.8 µM (inactive); in the assay on SN12C it was 13.8 µM (inactive); in the assay on NCI-H460 it was 12.9 µM (inactive); in the assay with SF-295, 16 µM (inactive).

Consider `CCc1nnc(CC)n1NCCCC(=O)O`, for which the GI50 in the assay with DU-145, in the assay with KM12, with CCRF-CEM, in the assay on NCI/ADR-RES, in the assay on OVCAR-8 and with EKVX was > 100 µM (inactive) each time. For the same compound, the GI50 in the assay with HOP-92, in the assay on SK-MEL-5, in the assay on 786-0, in the assay with UO-31, with SF-268 and in the assay on SK-MEL-28 was > 100 µM (inactive) in each case. In addition, the GI50 in the assay on RXF 393, in the assay with MDA-MB-435, with OVCAR-3, in the assay with MCF7, with SN12C and in the assay on SF-295 was > 100 µM (inactive) throughout.

Regarding `COc1c(-c2nc3ccc(N4CCN(C)CC4)nc3[nH]2)cc(OC)c2c1nc(CCl)n2C`, the GI50 with DU-145 was 25.4 µM (inactive); in the assay on KM12, 14.8 µM (inactive); in the assay with CCRF-CEM, 25.2 µM (inactive); in the assay with NCI/ADR-RES, 56.9 µM (inactive); with OVCAR-8, 20.1 µM (inactive); with EKVX, 19.4 µM (inactive). Besides, the GI50 in the assay on HOP-92 was 22.8 µM (inactive); with 786-0, 17.9 µM (inactive); with UO-31 it was 16.5 µM (inactive); in the assay with SF-268, 22.4 µM (inactive); in the assay on T47D it was 16 µM (inactive); in the assay with SK-MEL-28, 26.9 µM (inactive). The GI50 in the assay on RXF 393 was 16 µM (inactive); with MDA-MB-435, 16.1 µM (inactive); with OVCAR-3, 28.1 µM (inactive); in the assay with SN12C, 20.9 µM (inactive); in the assay on NCI-H460, 20.6 µM (inactive); in the assay on SF-295 it was 31.8 µM (inactive).

On to `NC1CC(=O)c2cscc21` (centres undefined), for which the GI50 in the assay on DU-145 is 91.4 µM (inactive); with KM12, 18.4 µM (inactive); with CCRF-CEM, 16.3 µM (inactive); in the assay with NCI/ADR-RES it was > 100 µM (inactive); in the assay on OVCAR-8 it was 31 µM (inactive); with EKVX, > 100 µM (inactive). Further, the GI50 in the assay on HOP-92 was 23 µM (inactive); with SK-MEL-5, > 100 µM (inactive); with 786-0, 15.1 µM (inactive); with UO-31, 10.3 µM (inactive); with T47D it was 19.6 µM (inactive); in the assay on SK-MEL-28, 37.3 µM (inactive). Further, the GI50 is > 100 µM (inactive) in the assay with RXF 393; 24.1 µM (inactive) in the assay on MDA-MB-435; 17.5 µM (inactive) in the assay with OVCAR-3; 27.6 µM (inactive) with SN12C; > 100 µM (inactive) with NCI-H460; > 100 µM (inactive) in the assay on SF-295.

Take `CN(NC(=O)/C(=C\c1ccco1)NC(=O)c1ccccc1)c1cn[nH]c(=O)c1Cl`: the GI50 is > 100 µM (inactive) with DU-145; 40.6 µM (inactive) in the assay on KM12; 24.6 µM (inactive) with CCRF-CEM; 50.2 µM (inactive) with NCI/ADR-RES; 42.7 µM (inactive) with OVCAR-8; > 100 µM (inactive) in the assay on EKVX. In addition, the GI50 in the assay with HOP-92 was > 100 µM (inactive); in the assay with SK-MEL-5, 29.7 µM (inactive); in the assay with 786-0, 41.3 µM (inactive); in the assay on UO-31, > 100 µM (inactive); in the assay on SF-268 it was > 100 µM (inactive); in the assay on SK-MEL-28, 36.6 µM (inactive). Also, the GI50 is > 100 µM (inactive) in the assay on RXF 393; > 100 µM (inactive) in the assay on MDA-MB-435; 27.9 µM (inactive) with OVCAR-3; > 100 µM (inactive) in the assay on MCF7; 53.2 µM (inactive) with SN12C; > 100 µM (inactive) in the assay with NCI-H460. Moreover, in the assay with SF-295, the GI50 is 64.4 µM (inactive).

(Values after ChEMBL document CHEMBL1201862, “PubChem BioAssay data set” (2004).)
